{"source": "paper PMC7317715", "about": "“Discovery of a novel fluorescent chemical probe suitable for evaluation of neuropilin‐1 binding of small molecules” (Drug Development Research, 2020)", "molecules": {"B1": {"name": "NRP1 b1 b1 domain (protein)", "chain": "FKCMEALGMESGEIHSDQITASSQYSTNWSAERSRLNYPENGWTPGEDSYREWIQVDLGLLRFVTAVGTQGAISKETKKKYYVKTYKIDVSSNGEDWITIKEGNKPVLFQGNTNPTDVVVAVFPKPLITRFVRIKPATWETGISMRFEVYGCKIT"}}, "key": {"NRP1 [1]": {"test_system": "NRP1", "details": "NRP1 inhibition using bt‐VEGF165 binding; ref Jia et al., 2006; read-out: Literature IC50; cited from earlier work"}, "NRP1 b1 [2]": {"target": "T1, NRP1 b1 (Homo sapiens, UniProt O14786)", "T1 construct": "Ligands were evaluated against the NRP1‐b1 domain", "T1 sequence (O14786 275-424 limits assumed)": "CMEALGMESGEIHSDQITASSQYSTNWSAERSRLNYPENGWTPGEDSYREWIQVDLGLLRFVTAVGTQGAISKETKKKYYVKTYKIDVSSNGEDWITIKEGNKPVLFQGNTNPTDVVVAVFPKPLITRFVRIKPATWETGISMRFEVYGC", "assay": "FP competition experiment with DS108 probe", "assay_type": "binding", "details": "for IC50: FP competition, DS108 0.75 μM, NRP1 b1 7.5 μM, PBS‐P buffer; for Ki: calculated from FP competition IC50 using kinetic equations (Nikolovska‐Coleska et al., 2004)", "protocol": "Competition experiments: FP samples were prepared in the following order—ligand in PBS‐P buffer (20 μl), NRP1‐b1 protein ([…], 20 μl) in PBS‐P buffer, and DS108 probe (1,500 nM, 40 μl) in PBS‐P buffer. FP was measured and normalized to experiment controls (buffer + probe, buffer + probe + protein) using a BMG Labtech PHERAstar® plate reader (filter settings: 485 nm [excitation] and 520 nm [emission]). Background FP was blanked using a PBS‐P buffer only control.\nData processing: raw data were processed using OriginPro curve fitting software to obtain the IC50s and error values shown. A dose–response curve fitting model was utilized for the competition experiments. A web based IC50‐to‐Ki converter that computes Ki values from experimentally determined IC50 values was employed (Cer, Mudunuri, Stephens, & Lebeda, 2009) (https://bioinfo-abcc.ncifcrf.gov/IC50_Ki_Converter/index.php) Each experiment was conducted in triplicate and repeated two times. The statistical reproducibility of this assay was evaluated using the z factor equation (Scheme 2)."}, "NRP1 b1 [3]": {"target": "T1, NRP1 b1", "assay": "FP saturation binding / protein titration (dynamic range)", "details": "for Dynamic window (mP): FP, probe + NRP1‐b1 vs probe only, probe and NRP‐b1 conc per probe as in Table 2; for Kd: KD derived from the 50% signal maximum", "protocol": "Initial experiments were performed using PBS‐P buffer with 3% DMSO in a final volume of 80 μl. The reaction plates or tubes were kept on ice during pipetting.\nSaturation binding: dynamic range and protein titration experiments were performed at probe concentrations selected with guidance from in‐house SPR analysis, literature KD of the untagged compound, and an FP technical resource guide (Invitrogen, 2006). The NRP‐b1 concentrations ranged from 10 nM to 30 μM."}, "NRP1‐b1 domain": {"target": "T2, NRP1‐b1 domain (Homo sapiens, UniProt O14786)", "T2 construct": "Ligands were evaluated against the NRP1‐b1 domain", "T2 sequence (O14786 275-424 limits assumed)": "T1 sequence (O14786 275-424 limits assumed)", "assay": "SPR binding of fluorescent probes to immobilised NRP1-b1", "details": "for Kd: NRP1‐b1 on CM5 chip, 3% DMSO in PBS‐P, 1:1 binding model, read-out: KD (μM, affinity); for Observed Rmax (% of theoretical): experimentally observed Rmax as percentage of theoretical Rmax (quality control)", "protocol": "All SPR analysis was performed on a BIAcore T200 system using series S CM5 sensor chips. The […] SPR is effectively a stop‐flow instrument, and dissociation from the immobilized protein is initiated by the absence of analyte (ligand) when buffer alone is perfused, this setup allows the determination of on and off rates and equilibrium binding constants. Relatively high DMSO concentrations are normal for SPR experiments to limit solubility problems and minimize nonspecific aggregation. Extensive DMSO controls are included and automatically subtracted from the sensorgrams. Sensorgrams were double referenced by subtracting the response on a reference flow cell and a blank sample. Ligands were evaluated against the NRP1‐b1 domain. NRP1‐b1 was covalently attached to a CM5 chip via amine coupling (Powell et al., 2018) with a surface density of 2,000–3,000 RU. Binding of novel fluorescent probes (0.4–100 μM) were analyzed by multicycle sequential injections (30–120 s association time) followed by undisturbed dissociation (30–60 s). A regeneration step was not used. Peptide stocks were dissolved in dimethyl sulfoxide (DMSO), and the final sample solutions for kinetic affinity experiments contained 3% DMSO in 1× phosphate‐buffered saline P20 buffer (PBS‐P, Cat no 28995084, GE Healthcare Ltd.). DMSO solvent effects were corrected for with eight calibration solutions ([…] in PBS‐P). Equilibrium constants (KD) were calculated using either kinetic or affinity models, assuming simple 1:1 (Langmuir) binding. Data processing and analysis were performed using BIAevaluation and OriginPro software. The theoretical Rmax (the maximal feasible signal between a ligand—analyte pair) for each compound/protein pair was calculated using Scheme 1 (Marquart, 2017).\nThe experimentally observed Rmax was then calculated as a percentage of the theoretical Rmax as a quality control measure."}, "NRP1 [4]": {"test_system": "NRP1", "parameters": "method as in Powell et al., 2018", "details": "ref Powell et al., 2018; cited from earlier work"}, "5-Flu-RPARPAR [5]": {"target": "5-Flu-RPARPAR", "assay": "SPR"}, "5-Flu-RPARPAR [6]": {"target": "5-Flu-RPARPAR"}}, "note": "Where two headings read alike, the source gives them in different places. Bridge positions count the residues as written; N and C are the ends. Peptide text beside a SMILES is read from it.", "data": [{"molecule": "CC(C)C[C@@H]1NC(=O)[C@H](CCC(N)=O)NC(=O)[C@H](CCCNC(=N)N)NC(=O)[C@H](C)NC(=O)[C@H](CCCCN)NC(=O)[C@@H]2CSSC[C@@H](C(=O)N[C@@H](CC(=O)O)C(=O)N[C@@H](CCCCN)C(=O)N3CCC[C@H]3C(=O)N[C@@H](CCCNC(=N)N)C(=O)N[C@@H](CCCNC(=N)N)C(=O)O)NC(=O)[C@H](CCCNC(=N)N)NC(=O)[C@H](CSSC[C@H](NC(=O)[C@@H](N)CO)C(=O)N[C@@H](CCCCN)C(=O)N[C@@H](CC(N)=O)C(=O)N[C@@H]([C@@H](C)O)C(=O)N[C@@H](CC(=O)O)C(=O)N[C@@H](CO)C(=O)N[C@@H](CCCNC(=N)N)C(=O)N2)NC(=O)[C@H]([C@@H](C)O)NC(=O)[C@H](CCCNC(=N)N)NC(=O)[C@H](CCC(=O)O)NC(=O)[C@H](CC(N)=O)NC(=O)[C@H](CC(C)C)NC(=O)[C@H](CCC(=O)O)NC1=O", "note": "[EG03287] (H-SCKNTDSRCKARQLELNERTCRCDKPRR-OH; disulfide 2-21, 9-23; N-terminus and C-terminus assumed)", "values": [{"measurement": "IC50", "setting": "NRP1 [1]", "value": 1.2, "unit": "µM"}, {"measurement": "IC50", "setting": "NRP1 b1 [2]", "value": "5.77 ± 0.87", "unit": "µM"}, {"measurement": "Ki", "setting": "NRP1 b1 [2]", "value": 2.47, "unit": "µM"}]}, {"molecule": "RPARPAR [reference compound]", "values": [{"measurement": "Dynamic window (mP)", "setting": "NRP1 b1 [3]", "value": 22.6, "unit": "mP"}, {"measurement": "Kd", "setting": "NRP1 b1 [3]; […]", "value": "1.88 ± 1.4", "unit": "µM"}, {"measurement": "Kd", "setting": "NRP1‐b1 domain", "value": "69 ± 22", "unit": "µM"}, {"measurement": "Observed Rmax (% of theoretical)", "setting": "NRP1‐b1 domain", "value": 60.61, "unit": "%"}]}, {"molecule": "N=C(N)NCCC[C@H](NC(=O)c1sccc1NS(=O)(=O)c1cc(-c2ccc(CN)cc2)cc2c1OCC2)C(=O)O", "note": "[EG01377]", "values": [{"measurement": "NRP1 antagonistic properties", "setting": "NRP1 [4]", "value": "submicromolar"}, {"measurement": "selectivity for NRP1 over NRP2 receptor", "setting": "NRP1 [4]", "value": "selective for NRP1"}, {"measurement": "IC50", "setting": "NRP1 b1 [2]", "value": "16.8 ± 1.25", "unit": "µM"}, {"measurement": "Ki", "setting": "NRP1 b1 [2]", "value": 7.39, "unit": "µM"}]}, {"molecule": "N=C(N)NCCC[C@H](NC(=O)c1sccc1NS(=O)(=O)c1cc(-c2ccc(CNC(=O)CCOCCOCCOCCOCCOCc3cn(CCCNC(=O)c4ccc5c(c4)C(=O)OC54c5ccc(O)cc5Oc5cc(O)ccc54)nn3)cc2)cc2c1OCC2)C(=O)O", "note": "[probe 4, (3‐((5‐(4‐(1‐(1‐(3‐(3′,6′‐dihydroxy‐3‐oxo‐3H‐spiro(isobenzofuran‐1,9′‐xanthene)‐5‐carboxamido)propyl)‐1H‐1,2,3‐triazol‐4‐yl)‐17‐oxo‐2,5,8,11,14‐pentaoxa‐18‐azanonadecan‐19‐yl)phenyl)‐2,3‐dihydrobenzofuran)‐7‐sulfonamido)thiophene‐2‐carbonyl)‐L‐arginine]", "values": [{"measurement": "Kd", "setting": "NRP1 b1 [3]; FP protein titration", "value": "0.62 ± 0.098", "unit": "µM"}, {"measurement": "Dynamic window (mP)", "setting": "NRP1 b1 [3]", "value": 5.2, "unit": "mP"}, {"measurement": "Kd", "setting": "NRP1‐b1 domain", "value": "3.3 ± 0.2", "unit": "µM"}, {"measurement": "Observed Rmax (% of theoretical)", "setting": "NRP1‐b1 domain", "value": 43, "unit": "%"}]}, {"molecule": "N=C(N)NCCC[C@H](NC(=O)c1sccc1NS(=O)(=O)c1cc(-c2ccc(CNC(=O)CCOCCOCCOCCNC(=O)c3ccc(-c4c5ccc(=O)cc-5oc5cc(O)ccc45)c(C(=O)O)c3)cc2)cc2c1OCC2)C(=O)O", "note": "[probe 3, (S)‐5‐((1‐(4‐(7‐(N‐(2‐((1‐carboxy‐4‐guanidinobutyl)carbamoyl)thiophen‐3‐yl)sulfamoyl)‐2,3‐dihydrobenzofuran‐5‐yl)phenyl)‐3‐oxo‐6,9,12‐trioxa‐2‐azatetradecan‐14‐yl)carbamoyl)‐2‐(6‐hydroxy‐3‐oxo‐3H‐xanthen‐9‐yl)benzoic acid]", "values": [{"measurement": "Kd", "setting": "NRP1 b1 [3]; FP protein titration", "value": "4.61 ± 0.19", "unit": "µM"}, {"measurement": "Dynamic window (mP)", "setting": "NRP1 b1 [3]", "value": 30.7, "unit": "mP"}, {"measurement": "Kd", "setting": "NRP1‐b1 domain", "value": "24.6 ± 6.3", "unit": "µM"}, {"measurement": "Observed Rmax (% of theoretical)", "setting": "NRP1‐b1 domain", "value": 77, "unit": "%"}]}, {"molecule": "B1", "values": [{"measurement": "Kd", "setting": "5-Flu-RPARPAR [5]", "value": 69, "unit": "µM"}, {"measurement": "Kd", "setting": "5-Flu-RPARPAR [6]", "value": 1.88, "unit": "µM"}]}]}
